Results published in the supplement of paper PMC13380429.

Key:
Conditions in all cases: 72 h
Caco-2 [1] = test: drug sensitivity score (DSS) for viability; higher = more toxic; extreme values may be limits of the assay
HepG2 [2] = test: as above
Calu-3 [3] = test: as above
Vero E6 [4] = test: as above
U2OS [5] = test: as above
Caco-2 [6] = test: cell viability relative to DMSO; higher = less toxic
HepG2 [7] = test: as above
Calu-3 [8] = test: as above
Vero E6 [9] = test: as above
U2OS [10] = test: as above
Caco-2 [11] = test: relative viability EC50 (midpoint between 100% and the lowest measured viability); higher = less toxic
HepG2 [12] = test: as above
Calu-3 [13] = test: as above
Vero E6 [14] = test: as above
U2OS [15] = test: as above

Structure (SMILES)	drug sensitivity score (Caco-2 [1])	drug sensitivity score (HepG2 [2])	drug sensitivity score (Calu-3 [3])	drug sensitivity score (Vero E6 [4])	drug sensitivity score (U2OS [5])	cell viability (Caco-2 [6]; 1 nM)	cell viability (Caco-2 [6]; 10 nM)	cell viability (Caco-2 [6]; 100 nM)	cell viability (Caco-2 [6]; 1000 nM)	cell viability (Caco-2 [6]; 10000 nM)	cell viability (HepG2 [7]; 1 nM)	cell viability (HepG2 [7]; 10 nM)	cell viability (HepG2 [7]; 100 nM)	cell viability (HepG2 [7]; 1000 nM)	cell viability (HepG2 [7]; 10000 nM)	cell viability (Calu-3 [8]; 1 nM)	cell viability (Calu-3 [8]; 10 nM)	cell viability (Calu-3 [8]; 100 nM)	cell viability (Calu-3 [8]; 1000 nM)	cell viability (Calu-3 [8]; 10000 nM)	cell viability (Vero E6 [9]; 1 nM)	cell viability (Vero E6 [9]; 10 nM)	cell viability (Vero E6 [9]; 100 nM)	cell viability (Vero E6 [9]; 1000 nM)	cell viability (Vero E6 [9]; 10000 nM)	cell viability (U2OS [10]; 1 nM)	cell viability (U2OS [10]; 10 nM)	cell viability (U2OS [10]; 100 nM)	cell viability (U2OS [10]; 1000 nM)	cell viability (U2OS [10]; 10000 nM)	relative viability EC50 (Caco-2 [11])	relative viability EC50 (HepG2 [12])	relative viability EC50 (Calu-3 [13])	relative viability EC50 (Vero E6 [14])	relative viability EC50 (U2OS [15])
O=S(=O)(N[C@H](CO)C(C(F)(F)F)C(F)(F)F)c1ccc(Cl)s1 [begacestat]	0	0	0	0.7	0	118%	102%	99.8%	96.1%	109%	99.1%	106%	88%	96.5%	96.6%	99.4%	102%	108%	104%	96.7%	99.6%	101%	105%	95.7%	84.6%	100%	94.2%	102%	89.7%	93.6%	> 10 µM	> 10 µM	> 10 µM	> 10 µM	> 10 µM
CCOC(=O)[C@H](CCc1ccccc1)N[C@H]1CCc2ccccc2N(CC(=O)O)C1=O [benazepril]	0	0	0	0	0	99.1%	90.8%	106%	101%	94.6%	112%	101%	95.4%	104%	96.9%	94.9%	97.5%	111%	97.8%	108%	103%	104%	96.1%	109%	99.2%	99.1%	94%	102%	93.8%	93.4%	> 10 µM	> 10 µM	> 10 µM	> 10 µM	> 10 µM
CC(O)CC(=O)O (stereo not drawn) [beta-hydroxybutyrate]	0	0	0	0	0	114%	99.4%	122%	104%	103%	90.5%	96.2%	101%	99.7%	99%	99.2%	106%	100%	96.9%	94.5%	97.6%	95.3%	93.3%	97.1%	114%	94.6%	95.1%	99.3%	97.8%	101%	> 10 µM	> 10 µM	> 10 µM	> 10 µM	> 10 µM
